Here are results for 9 molecules from patent US9242940B2, “N-substituted bis(fluoroalkyl)-1,4-benzodiazepinone compounds” (BRISTOL-MYERS SQUIBB COMPANY, priority 2012, dated 2016).

SMILES strings stand for the structures.

This series can be described thus: Metabolic Stability Half-Life Panel, human liver microsomes. Conditions: pH 7.4, human liver microsomes, 0.5 μM compound, NADPH, 45-minute time course, read-out: HLM (t1/2, min.). It counts as in vitro ADME. From the text:
Metabolic Stability Half-Life Panel
For the molecule `NC(=O)[C@@H](CCCC(F)(F)F)[C@@H](CCC(F)(F)F)C(=O)N[C@H]1N=C(c2ccccc2)c2ccccc2N(c2ccccn2)C1=O` [Example 1, (2R,3S)-N-((3S)-2-Oxo-5-phenyl-1-(2-pyridinyl)-2,3-dihydro-1H-1,4-benzodiazepin-3-yl)-3-(4,4,4-trifluorobutyl)-2-(3,3,3-trifluoropropyl)succinamide], the half-life at 0.5 μM was at least 1.12 h. With `CC(F)(F)C[C@@H](C(=O)N[C@H]1N=C(c2ccccc2)c2ccccc2N(CC2CC2)C1=O)[C@H](CCC(F)(F)F)C(N)=O` [Example 9, (2R,3S)-N-((3S)-1-(Cyclopropylmethyl)-2-oxo-5-phenyl-2,3-dihydro-1H-1,4-benzodiazepin-3-yl)-2-(2,2-difluoropropyl)-3-(3,3,3-trifluoropropyl)succinamide], the half-life at 0.5 μM is at least 1.12 h. The value for `NC(=O)[C@@H](CCC(F)(F)F)[C@@H](CCC(F)(F)F)C(=O)N[C@H]1N=C(c2ccccc2)c2ccccc2N(c2ccc(Cl)cn2)C1=O` [Example 2, (2R,3S)-N-((3S)-1-(5-Chloro-2-pyridinyl)-2-oxo-5-phenyl-2,3-dihydro-1H-1,4-benzodiazepin-3-yl)-2,3-bis(3,3,3-trifluoropropyl)succinamide] was at least 1.12 h; that for `NC(=O)[C@@H](CCC(F)(F)F)[C@@H](CCC(F)(F)F)C(=O)N[C@H]1N=C(c2ccccc2)c2ccccc2N(c2cccnc2)C1=O` [Example 5, (2R,3S)-N-((3S)-2-Oxo-5-phenyl-1-(3-pyridinyl)-2,3-dihydro-1H-1,4-benzodiazepin-3-yl)-2,3-bis(3,3,3-trifluoropropyl)succinamide] was at least 1.12 h; that for `COc1ccc2c(c1)C(c1ccccc1)=N[C@H](NC(=O)[C@H](CCC(F)(F)F)[C@H](CCC(F)(F)F)C(N)=O)C(=O)N2CC(F)(F)F` [Example 7, (2R,3S)-N-((3S)-7-Methoxy-2-oxo-5-phenyl-1-(2,2,2-trifluoroethyl)-2,3-dihydro-1H-1,4-benzodiazepin-3-yl)-2,3-bis(3,3,3-trifluoropropyl)succinamide] was at least 1.12 h.

For `CC(F)(F)C[C@H](C(N)=O)[C@@H](CCC(F)(F)F)C(=O)N[C@H]1N=C(c2ccccc2)c2ccccc2N(CC2CC2)C1=O` [Example 8, (2R,3S)-N-((3S)-1-(Cyclopropylmethyl)-2-oxo-5-phenyl-2,3-dihydro-1H-1,4-benzodiazepin-3-yl)-3-(2,2-difluoropropyl)-2-(3,3,3-trifluoropropyl)succinamide], the half-life at 0.5 μM was at least 1.12 h.

With `NC(=O)[C@@H](CCC(F)(F)F)[C@@H](CCC(F)(F)F)C(=O)N[C@H]1N=C(c2ccccc2)c2cc3c(cc2N(c2ccccn2)C1=O)OCO3` [Example 3, (2R,3S)-N-((7S)-6-Oxo-9-phenyl-5-(2-pyridinyl)-6,7-dihydro-5H-[1,3]dioxolo[4,5-h][1,4]benzodiazepin-7-yl)-2,3-bis(3,3,3-trifluoropropyl)succinamide], the half-life at 0.5 μM is at least 1.12 h. The value for `NC(=O)[C@@H](CCCC(F)(F)F)[C@@H](CCC(F)(F)F)C(=O)N[C@H]1N=C(c2ccccc2)c2ccccc2N(c2cccnc2)C1=O` [Example 4, (2R,3S)-N-((3S)-2-Oxo-5-phenyl-1-(3-pyridinyl)-2,3-dihydro-1H-1,4-benzodiazepin-3-yl)-3-(4,4,4-trifluorobutyl)-2-(3,3,3-trifluoropropyl)succinamide] was at least 1.12 h; that for `COc1ccc(C2=N[C@H](NC(=O)[C@H](CCC(F)(F)F)[C@H](CCC(F)(F)F)C(N)=O)C(=O)N(CC3CC3)c3ccccc32)cc1` [Example 6, (2R,3S)-N-((3S)-1-(Cyclopropylmethyl)-5-(4-methoxyphenyl)-2-oxo-2,3-dihydro-1H-1,4-benzodiazepin-3-yl)-2,3-bis(3,3,3-trifluoropropyl)succinamide] was at least 1.12 h.
